Reference: publication PMC8305076, “Comprehensive Evaluation of Biological Effects of Pentathiepins on Various Human Cancer Cell Lines and Insights into Their Mode of Action” (International Journal of Molecular Sciences, 2021)
Where two headings read alike, the source gives them in different places.

Experiments:
[1] = test system: A-427; test: MTT cell viability assay; format: cell-based; conditions: Homo sapiens, 48 h
Description: (§1) Distinct MTT cell viability and crystal violet cell proliferation assays were performed to assess the cytotoxicity of the compounds 1–6 on 14 human cancer cell lines. In the viability assay, cells with intact mitochondria and thus active dehydrogenases are competent to convert MTT to the corresponding insoluble formazan. The formazan can be photometrically detected after solubilization and allows for indirect conclusions about the viability of the cells as an IC50 value. In the crystal violet assay, cells are stained by the binding of the dye to the chromatin, thus allowing for a quantification of biomass that remains adherent after a treatment in comparison with a control after a specific time. Potency is defined as the growth inhibitory concentration 50% (GI50).
(§2) In addition to performing the cell viability assay under normoxia (19% atmospheric oxygen), incubations were also conducted under hypoxic conditions, i.e., atmospheric oxygen levels of 1% during the treatment for 48 h. Hypoxia is a favorable condition of the tumor microenvironment that is connected with poor outcome. Therefore, the low oxygen condition mimics better the tumor environment. The biological effect of the pentathiepins under this condition provides insight into their dependency for oxygen, which has been postulated a key component in the proposed mechanism of action (Figure 3). Consistent with the proposed mechanism of action for five of the compounds, potency decreased under hypoxic conditions; in fact for 6, the half-maximal inhibitory concentration exceeded the highest tested concentration of 10 µM in four cell lines (Figure 6, Table S3). […] In contrast to the other compounds, in some cell lines, the cytotoxic effects of 1 were more pronounced under oxygen-reduced incubation conditions (Figure 6), indicating a tangential role of oxygen availability for this pentathiepin. Especially for the breast cancer cell line MCF-7, the cytotoxicity increased substantially, indicated by a decrease of the IC50 from >10.0 µM to about 1.0 µM.
(§3) The effect of the pentathiepins on the viability of the cell lines was assessed via an MTT assay, performed as previously described. Healthy and viable cells convert the yellow soluble 3-(4,5-dimethylthiazol-2-yl)-2,5-diphenyltetrazolium bromide to the insoluble purple corresponding formazan, which can be spectrophotometrically measured. For this assay, 5000 cells (1 250 for LCLC-103H) in 0.1 mL of medium were seeded per well of a 96-well plate and incubated at standard conditions for 24 h prior to treatment. A serial dilution of the test compounds was prepared in medium, covering final concentrations from 10.0 to 0.04 µM, and 0.1 mL of the working solution was added to each well in triplicate. After 48 h, 20 µL of a 2.5 mg/mL MTT in PBS solution was pipetted into each well and further incubated for 4 h at standard conditions. Thereafter, medium was replaced with 50 µL DMSO, and the plates were put on a shaker for 5 min and subsequently read at λ = 570 nm, with a SpectraMax 384plus (Molecular Devices, Sunnyvale, CA, USA). The cell viabilities of the treatment conditions were calculated in relation to a solvent control sample. The absolute IC50 was calculated via nonlinear regression followed by interpolation of the dose–response graphs in Prism 7 (GraphPad, San Diego, CA, USA). The IC90 was derived from the IC50 by using the slope factor of the dose–response graph with the tool QuickCalcs from GraphPad (GraphPad Software, San Diego, CA, USA).

[2] = test system: A2780cis; test: MTT cell viability assay; format: cell-based; conditions: Homo sapiens, 48 h
Description: as §1, §2, §3

[3] = test system: A2780; test: MTT cell viability assay; format: cell-based; conditions: Homo sapiens; for IC50: 48 h; for IC90: calculated via GraphPad QuickCalcs from MTT IC50 and slope factor
Description: as §1, §2, §3

[4] = test system: DanG; test: MTT cell viability assay; format: cell-based; conditions: Homo sapiens; for IC50: 48 h; for IC90: calculated via GraphPad QuickCalcs from MTT IC50 and slope factor
Description: as §1, §2, §3

[5] = test system: HAP-1.KO.GPx1; test: MTT cell viability assay; format: cell-based; conditions: Homo sapiens; for IC50: 48 h; for IC90: calculated via GraphPad QuickCalcs from MTT IC50 and slope factor
Description: as §1, §2, §3

[6] = test system: HAP-1; test: MTT cell viability assay; format: cell-based; conditions: Homo sapiens; for IC50: HAP1, 48 h; for IC90: HAP1, calculated via GraphPad QuickCalcs from MTT IC50 and slope factor
Description: as §1, §2, §3

[7] = test system: Kyse-70; test: MTT cell viability assay; format: cell-based; conditions: Homo sapiens, 48 h
Description: as §1, §2, §3

[8] = test system: LCLC-103H; test: MTT cell viability assay; format: cell-based; conditions: Homo sapiens, 48 h
Description: as §1, §2, §3

[9] = test system: PATU-8902; test: MTT cell viability assay; format: cell-based; conditions: Homo sapiens; for IC50: 48 h; for IC90: calculated via GraphPad QuickCalcs from MTT IC50 and slope factor
Description: as §1, §2, §3

[10] = test system: RT-112; test: MTT cell viability assay; format: cell-based; conditions: Homo sapiens, 48 h
Description: as §1, §2, §3

[11] = test system: RT-4; test: MTT cell viability assay; format: cell-based; conditions: Homo sapiens, 48 h
Description: as §1, §2, §3

[12] = test system: Siso; test: MTT cell viability assay; format: cell-based; conditions: Homo sapiens; for IC50: 48 h; for IC90: calculated via GraphPad QuickCalcs from MTT IC50 and slope factor
Description: as §1, §2, §3

[13] = test system: YAPC; test: MTT cell viability assay; format: cell-based; conditions: Homo sapiens; for IC50: 48 h; for IC90: calculated via GraphPad QuickCalcs from MTT IC50 and slope factor
Description: as §1, §2, §3

[14] = test system: HAP-1, HAP-1.KO.GPx1, A2780, and Siso; test: apoptosis (summary); format: cell-based, human; design: key: no impact (0); weak impact (+); strong impact (++); conditions: summary grade
Description: As reported in our earlier publication, a representative pentathiepin was capable of inducing apoptosis in cancer cell lines. Here, we tested compounds 1–6 for their ability to trigger this particular modality of cell death in a subset of four cell lines: HAP-1, HAP-1.KO.GPx1, A2780, and Siso. A flow cytometric assay was performed, allowing us to discriminate between viable, early, and late apoptotic cells (representative dot plots can be found in Figure S47). FITC-labeled annexin V was used to assess the externalization of phosphatidyl serine as a hallmark of early apoptosis induction. The addition of propidium iodide (PI) enabled the detection of late apoptotic cells as it only permeates porous cell membranes and exerts fluorescence once bound to double-stranded DNA.
The annexin V-FITC/PI assay, which discriminates between viable, early, and late apoptotic cells within a sample population, was performed according to the manufacturer’s instructions (Miltenyi Biotec, Teterow, Germany). Briefly, 125,000 cells were seeded in 2 mL per well of a 6-well plate, allowed to adhere overnight, and subsequently treated with the respective pentathiepin (IC90, see Table S4) diluted in 3 mL of medium. After incubation periods of 6, 24, or 48 h, the cells were harvested, washed with the provided binding buffer, and stained with the annexin V-FITC reagent for 20 min at room temperature (RT) in the dark. After another washing step, the pellet was resuspended, and PI was added immediately before flow cytometric measurement at λEx/Em = 488/525 ± 50 nm for FITC and λEx/Em = 488/655–730 nm for PI with the MACSquant Analyzer 10 (Miltenyi Biotec, Teterow, Germany).

[15] = hypoxic (1% O2), read-out: IC50 MTT-H mean
[16] = normoxic (19% O2), read-out: IC50 MTT-N mean

IC50 [2, 15] [nM] | IC50 [2, 16] [nM] | IC50 [3, 15] [nM] | IC50 [3, 16] [nM] | IC90 [3] [nM] | Structure (SMILES) | IC50 [1, 15] [nM] | IC50 [1, 16] [nM] | IC50 [4, 15] [nM] | IC50 [4, 16] [nM] | IC90 [4] [nM] | IC50 [5, 15] [nM] | IC50 [5, 16] [nM] | IC90 [5] [nM] | IC50 [6, 15] [nM] | IC50 [6, 16] [nM] | IC90 [6] [nM] | IC50 [7, 15] [nM] | IC50 [7, 16] [nM] | IC50 [8, 15] [nM] | IC50 [8, 16] [nM] | other results
544 | 399 | 799 | 213 | 610 | CCOc1c2c(c3ccc(C(=O)N(CC)CC)cn13)SSSSS2 [Compound 4, 6-Ethoxy-N,N’-diethyl-[1,2,3,4,5]pentathiepino[6,7-a]indolizine-9-carboxamide] | 1190 | 1090 | 4460 | 1650 | 2710 | 1180 | 322 | 640 | 832 | 263 | 510 | 3600 | 976 | 827 | 674 | IC50 [9, 15]: 1270 nM; IC50 [9, 16]: 823 nM; IC90 [9]: 6 µM; IC50 [10, 15]: 1780 nM; IC50 [10, 16]: 1200 nM; IC50 [11, 15]: 2220 nM; IC50 [11, 16]: 1310 nM; IC50 [12, 15]: 4240 nM; IC50 [12, 16]: 934 nM; IC90 [12]: 1930 nM; IC50 [13, 15]: 2210 nM; IC50 [13, 16]: 1150 nM; IC90 [13]: 3.7 µM; Apoptosis [14]: +
449 | 308 | 588 | 259 | 510 | CCOc1c2c(c3ccc(C(=O)N4CCN(C(=O)c5ccc(F)cc5)CC4)cn13)SSSSS2 [Compound 5, (6-Ethoxy-[1,2,3,4,5]pentathiepino[6,7-a]indolizin-9-yl)(4-(4-fluorobenzoyl)piperazinyl)methanone] | 834 | 906 | 1620 | 1180 | 2050 | 912 | 413 | 720 | 661 | 270 | 490 | 1520 | 826 | 677 | 800 | IC50 [9, 15]: 1560 nM; IC50 [9, 16]: 1200 nM; IC90 [9]: 2.57 µM; IC50 [10, 15]: 1120 nM; IC50 [10, 16]: 1080 nM; IC50 [11, 15]: 1740 nM; IC50 [11, 16]: 716 nM; IC50 [12, 15]: 1850 nM; IC50 [12, 16]: 794 nM; IC90 [12]: 1470 nM; IC50 [13, 15]: 1520 nM; IC50 [13, 16]: 1360 nM; IC90 [13]: 2.2 µM; Apoptosis [14]: ++
1720 | 1510 | 2110 | 891 | 2390 | CCOc1c2c(c3ccc(C(=O)N4CCN(S(=O)(=O)c5ccc(C)cc5)CC4)cn13)SSSSS2 [Compound 6, (6-Ethoxy-[1,2,3,4,5]pentathiepino[6,7-a]indolizin-9-yl)(4-tosylpiperazinyl)methanone] | 1390 | 1790 | > 10000 | 2180 | 4940 | 1840 | 778 | 1460 | 1320 | 722 | 1460 | > 10000 | 1950 | 2530 | 2820 | IC50 [9, 15]: > 10000 nM; IC50 [9, 16]: 2980 nM; IC90 [9]: 7.58 µM; IC50 [10, 15]: > 10000 nM; IC50 [10, 16]: 3410 nM; IC50 [11, 15]: 5050 nM; IC50 [11, 16]: 1550 nM; IC50 [12, 15]: > 10000 nM; IC50 [12, 16]: 3260 nM; IC90 [12]: 5070 nM; IC50 [13, 15]: 3720 nM; IC50 [13, 16]: 5170 nM; IC90 [13]: 17.9 µM; Apoptosis [14]: +
